The supplement of paper PMC10307832

Legend:
Assay in all cases: relative viability (nuclei count vs DMSO), 5 days (fraction); higher = more cells survive
[1] = compound: C1=CC=C(C(=C1)C2=CC=C(C=C2)C3=CSC4=C3C(=C(C(=O)N4)C#N)O)O + CCNC(=O)c1noc(-c2cc(C(C)C)c(O)cc2O)c1-c1ccc(CN2CCOCC2)cc1 [Luminespib] (partner 0.01 µM)
Procedure, shortened: (§1)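 A single step with final 0.05% Triton X-100, 1% formaldehyde and 1 ug/ml Hoechst fixed the cells and stained nuclei 5 days after treatment. Lung cancer cell lines in 1536-well plates had been treated by pin tool the day after seeding with one drug alone or a fixed anchor-drug dose plus five library-drug doses (not always all listed) in √10 steps, and nuclei were counted on 4× images. Relative viability is the ratio of nuclei in treated wells to nuclei in vehicle wells, taken as the median of duplicate plates.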

[2] = compound: C1=CC=C(C(=C1)C2=CC=C(C=C2)C3=CSC4=C3C(=C(C(=O)N4)C#N)O)O + CS(=O)(=O)CCNCc1ccc(-c2ccc3ncnc(Nc4ccc(OCc5cccc(F)c5)c(Cl)c4)c3c2)o1 [Lapatinib] (partner 2 µM)
Procedure, shortened: as §1

[3] = compound: C1=CC=C(C(=C1)C2=CC=C(C=C2)C3=CSC4=C3C(=C(C(=O)N4)C#N)O)O + NC(=O)Nc1cc(-c2cccc(F)c2)sc1C(=O)N[C@H]1CCCNC1 [AZD7762] (partner 0.2 µM)
Procedure, shortened: as §1

[4] = compound: O=C(CCCCCCNC(=O)c1cnc(N(c2ccccc2)c2ccccc2)nc1)NO [Ricolinostat] + CS(=O)(=O)N1CCN(Cc2cc3nc(-c4cccc5[nH]ncc45)nc(N4CCOCC4)c3s2)CC1 [Pictilisib] (partner 1 µM)
Procedure, shortened: as §1

Cell Line	relative viability ([1]; first compound 0.08 µM)	relative viability ([1]; first compound 0.253 µM)	relative viability ([1]; first compound 0.8 µM)	relative viability ([1]; first compound 2.53 µM)	relative viability ([1]; first compound 8 µM)	relative viability ([2]; first compound 0.08 µM)	relative viability ([2]; first compound 0.253 µM)	relative viability ([2]; first compound 0.8 µM)	relative viability ([2]; first compound 2.53 µM)	relative viability ([2]; first compound 8 µM)	relative viability ([3]; first compound 0.08 µM)	relative viability ([3]; first compound 0.253 µM)	relative viability ([3]; first compound 0.8 µM)	relative viability ([3]; first compound 2.53 µM)	relative viability ([3]; first compound 8 µM)	relative viability ([4]; first compound 0.08 µM)	relative viability ([4]; first compound 0.253 µM)	relative viability ([4]; first compound 0.8 µM)	relative viability ([4]; first compound 2.53 µM)
HCC-15	0.277	0.289	0.297	0.38	0.3	0.702	0.918	0.897	0.962	0.783	1.4	1.38	1.46	1.32	0.93	0.647	0.79	0.779	0.617
HCC-44		1.55	0.993	1.12	0.822	0.863	1.07	0.928	1.02	0.993	1.13	1.11	1.01	1.01	1.02	0.551	0.673	0.635	0.424
HCC-827	0.639	0.845	0.573	0.7	0.43	0.185	0.201	0.197	0.184	0.18	0.233	0.192	0.199	0.231	0.176	0.956	0.965	0.948	1.09
HOP-62	0.925	0.892	0.876	1.05	0.762	0.766	0.888	1.1	1.19	0.871	0.533	0.548	0.376	0.704	0.474	0.624	0.749	0.624	0.33
LC-2-ad	1.08	1.4	1.01	1.23	0.983	0.781	1.01	0.903	1.1	1.11	0.873	0.798	0.871	0.872	0.824	0.4	0.546	0.433	0.236
LCLC-97TM1	0.971	1.07	0.78	0.729	0.654	1.01	1.6	1.05	0.68	0.92	0.225	0.259	0.258	0.278	0.148	0.205	0.181	0.168	0.141
LK-2		0.192	0.193	0.184	0.191		0.884	0.932	1.05	0.696	0.309	0.522	0.277	0.517	0.274		0.497	0.48	0.483
LOU-NH91	0.439	0.41	0.304	0.364	0.33	0.751	0.807	0.788	0.601	0.738	0.79	0.804	0.745	0.733	0.701		0.557	0.492	0.528
LU99A	0.245	0.234	0.295	0.261	0.242	0.97	1.09	1.13	1.12	0.955	0.331	0.293	0.335	0.391	0.275	0.299	0.262	0.258	0.219
LXF-289	0.764	0.651	0.8	0.73	0.632	0.89	0.895	0.917	0.908	0.924	1.06	1.09	1.15	1.2	0.925	0.702	0.809	0.804	0.554
NCI-H23		0.19	0.212	0.197	0.211	1.36	1.09	1.19	1.08	0.843	0.232	0.168	0.239	0.229	0.229	0.381	0.572	0.475	0.309
NCI-H322M	0.792	0.808	0.881	0.911	0.758	0.621	0.616	0.569	0.563	0.589	0.599	0.6	0.522	0.639	0.64		0.558	0.561	0.568
NCI-H358	0.304	0.331	0.293	0.603	0.221	0.431	0.473	0.549	0.49	0.41	0.486	0.542	0.532	0.605	0.488	0.213	0.495	0.463	0.539
NCI-H460	0.0357	0.0366	0.0362	0.0279	0.036		1.09	0.868	1.24	0.747	0.579	0.68	0.604	0.611	0.585	0.332	0.393	0.308	0.269
NCI-H596	0.696	0.941	0.943	1.15	0.904	0.866	1.17	1.16	0.999	1.02	0.862	1.09	1.21	1.18	0.986	0.399	0.399	0.378	0.335
NCI-H647	0.183	0.0923	0.19	0.245	0.209	0.447	1.2	1.11	1.16	0.871	0.294	0.337	0.276	0.39	0.301		0.42	0.415	0.456
NCI-H650	0.778	0.898	0.67	0.902	0.78	0.625	1.09	0.742	1.09	0.763	0.911	1.04	1.17	1.02	0.817		0.766	0.77	0.506
NCI-H727	0.451	0.356	0.43	0.487	0.341	0.834	0.844	0.927	0.589	0.757	0.569	0.541	0.603	0.543	0.434	0.305	0.409	0.623	0.291
NCI-H838	0.276	0.333	0.242	0.197	0.329	0.659	1.11	0.973	0.887	0.872	0.914	0.923	1.02	0.875	0.839	0.326	0.563	0.613	0.531
NCI-H1355	0.542	0.681	0.727	0.61	0.533	0.949	0.966	1.1	0.81	0.999	0.693	0.899	0.739	0.763	0.752		0.418	0.419	0.316
NCI-H1395	0.933	0.683	0.658	0.641	0.5		0.87	1.05	0.974	0.965		0.397	0.395	0.353	0.419		0.636	0.511	0.597
NCI-H1437	1.01	1.34	1.17	1.17	0.902	0.72	0.794	0.772	0.891	0.527	1.1	1.27	1.12	1.22	1.15	0.38	0.414	0.36	0.223
NCI-H1651	0.77	0.818	0.971	0.974	0.546	0.697	0.799	0.78	0.821	0.683	0.496	0.454	0.428	0.479	0.334	0.612	0.55	0.571	0.44
NCI-H1666	0.942	1.05	0.949	1.01	1.01	0.667	0.826	0.577	0.427	0.59	0.807	0.894	0.8	0.796	0.706	0.445	0.52	0.378	0.305
NCI-H1734	0.16	0.245	0.196	0.214	0.208	1.09	1.05	1.16	1.01	0.887	0.573	0.511	0.559	0.594	0.459	0.371	0.467	0.495	0.402
NCI-H1755	0.401	0.302	0.336	0.349	0.447	0.938	1.11	0.875	1.11	1.1	0.44	0.466	0.572	0.435	0.377	0.278		0.402	0.312
NCI-H1793	0.19	0.21	0.42	0.225	0.166	0.583	0.765	0.825	0.701	0.598	0.401	0.411	0.473	0.53	0.432		0.31	0.311	0.298
NCI-H1915	0.665	0.632		0.929	0.576	0.835	1.04	0.924	1.15	0.882	0.657	0.754	0.696	0.697	0.649	0.852	0.928	0.869	0.729
NCI-H1944	0.839	0.736	0.752	0.777	0.724	0.69	0.853	0.883	0.67	0.788	0.67	0.537	0.696	0.469	0.603	0.285	0.347	0.321	0.289
